Results from paper PMC4503722, “Novel Phenotypic Outcomes Identified for a Public Collection of Approved Drugs from a Publicly Accessible Panel of Assays” (PLoS ONE, 2015).
Where two headings read alike, the source gives them in different places.

Experiments:
[1] = system: ECFC/ADSC co-culture cell nuclei number
[2] = biological target: T1, hp70S6K1 (RPS6KB1) (Homo sapiens, UniProt P23443); experiment: Cerep LANCE kinase assay hp70S6K1 (S1 assay 31); format: biochemical; conditions: for hp70S6K1 LANCE IC50/EC50: assay number 31
T1 construct: purchased Cerep (LANCE kinase assay platform, contract assay)
T1 sequence (P23443 whole entry): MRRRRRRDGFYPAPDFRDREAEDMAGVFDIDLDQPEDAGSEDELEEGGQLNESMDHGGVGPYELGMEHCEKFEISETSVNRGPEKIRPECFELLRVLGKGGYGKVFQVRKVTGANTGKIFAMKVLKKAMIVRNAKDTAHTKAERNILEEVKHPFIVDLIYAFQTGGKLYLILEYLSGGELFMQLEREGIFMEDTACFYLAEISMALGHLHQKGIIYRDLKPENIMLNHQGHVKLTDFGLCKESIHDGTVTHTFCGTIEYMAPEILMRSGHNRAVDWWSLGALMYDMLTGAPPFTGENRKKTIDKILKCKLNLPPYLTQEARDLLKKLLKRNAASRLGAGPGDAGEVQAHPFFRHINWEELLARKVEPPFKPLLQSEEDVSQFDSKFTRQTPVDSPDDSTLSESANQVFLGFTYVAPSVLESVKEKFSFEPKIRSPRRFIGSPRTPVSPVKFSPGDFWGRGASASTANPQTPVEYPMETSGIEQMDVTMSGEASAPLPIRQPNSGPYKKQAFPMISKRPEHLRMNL

[3] = system: RKO; experiment: cells; format: cell-based; conditions: for Basal_Viability ATP RKO IC50/EC50: assay number 29
[4] = biological target: T2, hGSK3b (Homo sapiens, UniProt P49841); experiment: Cerep LANCE kinase assay hGSK3b (S1 assay 34); format: biochemical; conditions: for hGSK3b LANCE IC50/EC50: assay number 34
T2 construct: purchased Cerep (LANCE kinase assay platform, contract assay)
T2 sequence (P49841 whole entry): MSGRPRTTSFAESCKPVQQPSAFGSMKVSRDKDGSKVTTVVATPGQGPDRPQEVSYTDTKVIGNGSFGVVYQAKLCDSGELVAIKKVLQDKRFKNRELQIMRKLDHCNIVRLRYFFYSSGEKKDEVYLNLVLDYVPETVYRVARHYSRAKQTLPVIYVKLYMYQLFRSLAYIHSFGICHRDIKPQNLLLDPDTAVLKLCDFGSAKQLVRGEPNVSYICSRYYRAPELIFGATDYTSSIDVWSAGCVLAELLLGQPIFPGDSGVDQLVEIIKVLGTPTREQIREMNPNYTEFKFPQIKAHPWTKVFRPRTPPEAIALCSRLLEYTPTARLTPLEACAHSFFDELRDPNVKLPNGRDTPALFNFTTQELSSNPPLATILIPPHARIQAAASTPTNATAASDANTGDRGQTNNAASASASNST

[5] = system: SNU-C1; experiment: cells; format: cell-based; conditions: for Basal_Viability ATP SNU-C1 IC50/EC50: assay number 30
[6] = system: alkaline phosphatase (ALP) activity in C2C12 cells; format: cell-based; conditions: for WntCondMedia_Alk Phos C2C12 IC50/EC50: assay number 6
[7] = biological target: T3, hJAK2 (Homo sapiens, UniProt O60674); experiment: Cerep LANCE kinase assay hJAK2 (S1 assay 33); format: biochemical; conditions: for hJAK2 LANCE IC50/EC50: assay number 33
T3 construct: purchased Cerep (LANCE kinase assay platform, contract assay)
T3 sequence (O60674 whole entry): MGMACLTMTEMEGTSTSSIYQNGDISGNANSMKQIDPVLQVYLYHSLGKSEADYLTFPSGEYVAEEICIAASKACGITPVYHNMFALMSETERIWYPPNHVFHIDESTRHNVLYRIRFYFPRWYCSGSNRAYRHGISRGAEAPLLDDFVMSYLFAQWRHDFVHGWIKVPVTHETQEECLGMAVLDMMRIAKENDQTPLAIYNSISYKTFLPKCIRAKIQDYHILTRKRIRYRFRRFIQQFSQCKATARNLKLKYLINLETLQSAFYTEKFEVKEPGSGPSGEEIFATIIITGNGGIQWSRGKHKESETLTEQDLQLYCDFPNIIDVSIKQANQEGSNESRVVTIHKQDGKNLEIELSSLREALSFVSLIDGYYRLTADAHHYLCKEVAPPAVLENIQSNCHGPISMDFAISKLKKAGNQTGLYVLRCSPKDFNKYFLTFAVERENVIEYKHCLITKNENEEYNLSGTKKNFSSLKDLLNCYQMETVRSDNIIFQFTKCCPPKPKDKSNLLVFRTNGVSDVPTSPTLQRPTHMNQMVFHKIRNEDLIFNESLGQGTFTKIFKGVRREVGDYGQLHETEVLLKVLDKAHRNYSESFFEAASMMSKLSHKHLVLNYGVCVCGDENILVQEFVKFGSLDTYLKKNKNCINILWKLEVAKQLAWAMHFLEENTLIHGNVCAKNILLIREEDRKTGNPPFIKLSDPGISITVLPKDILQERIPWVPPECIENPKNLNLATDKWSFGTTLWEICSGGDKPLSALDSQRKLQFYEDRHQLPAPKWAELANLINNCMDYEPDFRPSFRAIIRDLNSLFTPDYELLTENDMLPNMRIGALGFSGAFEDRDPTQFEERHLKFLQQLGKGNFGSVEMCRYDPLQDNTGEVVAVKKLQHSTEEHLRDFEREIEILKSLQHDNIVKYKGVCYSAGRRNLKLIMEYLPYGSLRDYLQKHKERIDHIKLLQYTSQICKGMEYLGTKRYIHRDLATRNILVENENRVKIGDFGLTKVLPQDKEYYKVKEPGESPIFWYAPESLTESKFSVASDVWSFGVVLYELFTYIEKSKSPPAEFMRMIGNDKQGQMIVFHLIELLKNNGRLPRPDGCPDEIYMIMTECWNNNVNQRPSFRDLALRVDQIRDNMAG

[8] = biological target: T4, hKDR (Homo sapiens, UniProt P35968); experiment: Cerep LANCE kinase assay hKDR (S1 assay 32); format: biochemical; conditions: for hKDR LANCE IC50/EC50: assay number 32
T4 construct: purchased Cerep (LANCE kinase assay platform, contract assay)
T4 sequence (P35968 20-1356): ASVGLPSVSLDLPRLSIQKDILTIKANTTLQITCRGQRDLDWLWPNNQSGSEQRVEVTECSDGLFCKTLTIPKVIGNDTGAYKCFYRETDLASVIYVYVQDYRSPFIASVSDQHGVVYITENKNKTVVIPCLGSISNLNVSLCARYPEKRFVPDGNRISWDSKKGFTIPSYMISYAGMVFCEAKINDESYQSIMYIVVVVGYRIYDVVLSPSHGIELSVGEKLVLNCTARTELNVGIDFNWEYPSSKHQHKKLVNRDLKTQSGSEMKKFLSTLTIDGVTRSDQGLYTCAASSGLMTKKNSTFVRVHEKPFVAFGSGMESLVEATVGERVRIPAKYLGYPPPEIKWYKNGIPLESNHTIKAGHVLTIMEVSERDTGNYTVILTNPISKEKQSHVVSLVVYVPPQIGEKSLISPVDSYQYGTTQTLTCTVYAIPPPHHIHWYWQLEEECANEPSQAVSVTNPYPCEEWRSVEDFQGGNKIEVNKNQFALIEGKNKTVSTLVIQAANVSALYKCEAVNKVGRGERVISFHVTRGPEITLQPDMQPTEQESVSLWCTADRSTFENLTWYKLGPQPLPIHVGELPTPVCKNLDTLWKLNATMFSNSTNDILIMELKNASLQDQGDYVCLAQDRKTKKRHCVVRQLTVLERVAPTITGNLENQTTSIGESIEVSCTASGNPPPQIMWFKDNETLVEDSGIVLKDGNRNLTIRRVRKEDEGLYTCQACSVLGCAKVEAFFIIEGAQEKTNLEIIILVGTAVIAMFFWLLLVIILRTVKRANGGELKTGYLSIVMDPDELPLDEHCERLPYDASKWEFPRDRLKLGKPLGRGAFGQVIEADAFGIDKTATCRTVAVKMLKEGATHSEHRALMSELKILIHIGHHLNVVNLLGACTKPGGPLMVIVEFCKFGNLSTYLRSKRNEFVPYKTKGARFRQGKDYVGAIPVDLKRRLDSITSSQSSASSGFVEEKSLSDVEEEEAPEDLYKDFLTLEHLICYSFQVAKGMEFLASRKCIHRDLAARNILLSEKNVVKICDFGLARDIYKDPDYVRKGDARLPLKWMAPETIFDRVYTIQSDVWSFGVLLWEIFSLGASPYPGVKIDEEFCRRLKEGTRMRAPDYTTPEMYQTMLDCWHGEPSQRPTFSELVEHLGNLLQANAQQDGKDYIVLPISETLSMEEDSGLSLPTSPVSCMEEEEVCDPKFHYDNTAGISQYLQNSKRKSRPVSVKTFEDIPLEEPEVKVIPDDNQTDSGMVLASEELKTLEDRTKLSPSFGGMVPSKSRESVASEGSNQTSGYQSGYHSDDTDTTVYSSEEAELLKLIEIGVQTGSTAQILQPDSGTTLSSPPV

[9] = system: HeLa cells; experiment: cells; format: cell-based; conditions: for Hela CellCycMod PI 2N IC50/EC50: assay number 14; for Hela CellCycMod PI S Phase IC50/EC50: assay number 15; for Hela CellCycMod PI 4N IC50/EC50: assay number 16; for Hela CellCycMod PI MI IC50/EC50: assay number 17; for Hela CellCycMod PI Cell Number IC50/EC50: assay number 18
[10] = system: HCT116; experiment: cells; format: cell-based; conditions: for Basal_Viability ATP HCT116 IC50/EC50: assay number 25
[11] = system: nuclear β-catenin in C2C12 cells; experiment: cells; format: cell-based; conditions: for WntCondMedia_bCatenin C2C12 IC50/EC50: assay number 5
[12] = biological target: T5, hFLT3 (Homo sapiens, UniProt P36888); experiment: Cerep LANCE kinase assay hFLT3 (S1 assay 35); format: biochemical; conditions: for hFLT3 LANCE IC50/EC50: assay number 35
T5 construct: purchased Cerep (LANCE kinase assay platform, contract assay)
T5 sequence (P36888 27-993): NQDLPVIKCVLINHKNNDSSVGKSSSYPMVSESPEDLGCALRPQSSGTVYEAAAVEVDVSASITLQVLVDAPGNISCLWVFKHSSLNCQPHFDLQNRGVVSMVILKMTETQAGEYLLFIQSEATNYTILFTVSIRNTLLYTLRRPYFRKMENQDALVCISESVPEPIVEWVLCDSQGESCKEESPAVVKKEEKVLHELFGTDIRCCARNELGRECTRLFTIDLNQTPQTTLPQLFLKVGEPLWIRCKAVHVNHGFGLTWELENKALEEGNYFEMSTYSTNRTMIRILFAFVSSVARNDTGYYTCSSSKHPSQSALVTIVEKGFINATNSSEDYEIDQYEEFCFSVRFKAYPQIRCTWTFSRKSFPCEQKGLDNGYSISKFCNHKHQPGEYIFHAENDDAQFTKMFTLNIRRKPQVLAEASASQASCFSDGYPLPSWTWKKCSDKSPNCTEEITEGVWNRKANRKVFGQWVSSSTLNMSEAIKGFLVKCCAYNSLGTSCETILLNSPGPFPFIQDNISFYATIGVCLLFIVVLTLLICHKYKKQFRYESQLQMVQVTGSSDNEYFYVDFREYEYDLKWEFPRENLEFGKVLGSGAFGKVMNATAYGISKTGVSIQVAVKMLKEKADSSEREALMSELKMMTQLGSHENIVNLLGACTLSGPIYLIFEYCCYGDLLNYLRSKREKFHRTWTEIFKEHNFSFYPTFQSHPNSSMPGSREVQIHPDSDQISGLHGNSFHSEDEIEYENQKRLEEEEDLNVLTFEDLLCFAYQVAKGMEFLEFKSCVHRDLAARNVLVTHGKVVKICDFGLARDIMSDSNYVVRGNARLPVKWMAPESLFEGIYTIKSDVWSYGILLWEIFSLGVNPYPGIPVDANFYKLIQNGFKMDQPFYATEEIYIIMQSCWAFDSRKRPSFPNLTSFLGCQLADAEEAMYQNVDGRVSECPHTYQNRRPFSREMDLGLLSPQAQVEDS

[13] = system: HCT116 cells treated with a GSK3β inhibitor; experiment: cells; format: cell-based; conditions: for GSK3b inh pretreated_Viability ATP HCT116 IC50/EC50: assay number 26, GSK3b inhibitor pretreated
[14] = system: HT-29; experiment: cells; format: cell-based; conditions: for Basal_Viability ATP HT-29 IC50/EC50: assay number 28
[15] = system: endothelial tube formation in co-cultures of ECFCs and ADSCs treated with VEGF; experiment: cells; format: cell-based, human
[16] = system: Colo320; experiment: cells; format: cell-based; conditions: for Basal_Viability ATP Colo 320 IC50/EC50: assay number 27
[17] = system: SW480; experiment: cells; format: cell-based; conditions: for Basal_Viability ATP SW480 IC50/EC50: assay number 24
[18] = system: DLD-1; experiment: cells; format: cell-based; conditions: for Basal_Viability ATP DLD-1 IC50/EC50: assay number 23

Row | SMILES | VEGF_ADSC\ECFC Angio Hoechst NucArea IC50/EC50 [1] [µM] | hp70S6K1 LANCE IC50/EC50 [2] [µM] | Basal_Viability ATP RKO IC50/EC50 [3] [µM] | hGSK3b LANCE IC50/EC50 [4] [µM] | Basal_Viability ATP SNU-C1 IC50/EC50 [5] [µM] | WntCondMedia_Alk Phos C2C12 IC50/EC50 ([6]; concentration response) [µM] | hJAK2 LANCE IC50/EC50 [7] [µM] | hKDR LANCE IC50/EC50 [8] [µM] | Hela CellCycMod PI 2N IC50/EC50 ([9]; 2N) [µM] | Hela CellCycMod PI S Phase IC50/EC50 [9] [µM] | Hela CellCycMod PI 4N IC50/EC50 ([9]; 4N) [µM] | Hela CellCycMod PI MI IC50/EC50 ([9]; MI) [µM] | Hela CellCycMod PI Cell Number IC50/EC50 [9] [µM] | Basal_Viability ATP HCT116 IC50/EC50 ([10]; basal) [µM] | WntCondMedia_bCatenin C2C12 IC50/EC50 ([11]; concentration response) [µM] | hFLT3 LANCE IC50/EC50 [12] [µM] | GSK3b inh pretreated_Viability ATP HCT116 IC50/EC50 [13] [µM] | Basal_Viability ATP HT-29 IC50/EC50 [14] [µM] | VEGF_ADSC\ECFC Angio CD31 TubeArea IC50/EC50 [15] [µM] | IC50/EC50, hp70S6K1 LANCE (assay number 31) [2] [µM] | other results
1 | CC[C@]1(O)C[C@@H]2CN(CCc3c([nH]c4ccccc34)[C@@](C(=O)OC)(c3cc4c(cc3OC)N(C)[C@H]3[C@@](O)(C(=O)OC)[C@H](OC(C)=O)[C@]5(CC)C=CCN6CC[C@]43[C@@H]65)C2)C1.O=S(=O)(O)O [NCGC00263548-01] | > 10 | > 20 | 0.001 | > 20 | > 20 | 0.0089 | > 20 | > 20 | 0.0033 | > 10 | 0.0032 | 0.0032 | 0.0026 | 0.001 | 0.0058 | > 20 | 0.001 | 0.001 | 0.0023 |  | Basal_Viability ATP Colo 320 IC50/EC50 [16]: 0.001 µM
2 | O=[N+]([O-])c1ccc(O)c2ncccc12 [NCGC00160664-03] |  |  |  |  |  |  |  |  |  |  |  |  |  |  |  |  |  |  |  | > 20 | IC50/EC50, Basal_Viability ATP RKO (assay number 29) [3]: 0.7101 µM; IC50/EC50, hGSK3b LANCE (assay number 34) [4]: > 20 µM; IC50/EC50, Basal_Viability ATP SNU-C1 (assay number 30) [5]: > 20 µM; IC50/EC50, WntCondMedia_Alk Phos C2C12 (assay number 6) [6]: 6.3615 µM; IC50/EC50, hJAK2 LANCE (assay number 33) [7]: > 20 µM; IC50/EC50, hKDR LANCE (assay number 32) [8]: > 20 µM; IC50/EC50, Hela CellCycMod PI 2N (assay number 14) [9]: 1.7028 µM; IC50/EC50, Hela CellCycMod PI 4N (assay number 16) [9]: > 10 µM; IC50/EC50, Hela CellCycMod PI Cell Number (assay number 18) [9]: 0.2952 µM; IC50/EC50, Hela CellCycMod PI MI (assay number 17) [9]: > 10 µM; IC50/EC50, Hela CellCycMod PI S Phase (assay number 15) [9]: > 10 µM; IC50/EC50, Basal_Viability ATP HCT116 (assay number 25) [10]: 0.9206 µM; IC50/EC50, WntCondMedia_bCatenin C2C12 (assay number 5) [11]: > 20 µM; IC50/EC50, hFLT3 LANCE (assay number 35) [12]: > 20 µM; IC50/EC50, GSK3b inh pretreated_Viability ATP HCT116 (assay number 26) [13]: 0.3751 µM; IC50/EC50, Basal_Viability ATP HT-29 (assay number 28) [14]: > 20 µM; IC50/EC50, Basal_Viability ATP SW480 (assay number 24) [17]: 0.6046 µM; IC50/EC50, Basal_Viability ATP Colo 320 (assay number 27) [16]: 0.6837 µM; IC50/EC50, Basal_Viability ATP DLD-1 (assay number 23) [18]: 1.375 µM
3 | Cc1nc(N)nc(N)c1-c1ccc(Cl)c(Cl)c1 [NCGC00253626-01] |  | > 20 |  | > 20 |  | 0.0299 | > 20 | > 20 | > 10 | > 10 | > 10 | > 10 | 1.0068 | 0.4134 | 0.0504 | > 20 | 0.05888 |  |  |  | Basal_Viability ATP RKO IC50/EC50 ([3]; basal): 0.1171 µM; Basal_Viability ATP SNU-C1 IC50/EC50 ([5]; basal): 2.165 µM; Basal_Viability ATP HT-29 IC50/EC50 ([14]; basal): 0.9316 µM; Basal_Viability ATP SW480 IC50/EC50 ([17]; basal): 0.512 µM; Basal_Viability ATP Colo 320 IC50/EC50 ([16]; basal): 2.03 µM; Basal_Viability ATP DLD-1 IC50/EC50 ([18]; basal): 0.6337 µM
4 | CC(C)C[C@H](NC(=O)[C@H](CCc1ccccc1)NC(=O)CN1CCOCC1)C(=O)N[C@@H](Cc1ccccc1)C(=O)N[C@@H](CC(C)C)C(=O)[C@@]1(C)CO1 [NCGC00249613-02] | 0.2852 | > 20 | 0.00394 | > 20 | 0.00147 | 0.0152 | > 20 | > 20 | > 10 |  | > 10 | > 10 | 0.0099 | 0.00558 | 0.0292 | > 20 | 0.00173 | 0.00318 | 0.0204 |  | Basal_Viability ATP DLD-1 IC50/EC50 [18]: 0.00696 µM
5 | COc1cccc2c1C(=O)c1c(O)c3c(c(O)c1C2=O)C[C@@](O)(C(C)=O)C[C@@H]3O[C@H]1C[C@H](N)[C@H](O)[C@H](C)O1 [NCGC00024246-15] |  | > 20 |  | > 20 |  | 0.0061 | > 20 | > 20 | 0.01016 | 9.6046 | 0.04645 | 0.3738 | 0.00805 | 0.05086 | 0.3691 | > 20 | 0.05538 |  |  |  | Basal_Viability ATP RKO IC50/EC50 ([3]; basal): 0.1182 µM; Basal_Viability ATP SNU-C1 IC50/EC50 ([5]; basal): 0.3376 µM; Basal_Viability ATP HT-29 IC50/EC50 ([14]; basal): 0.6485 µM; Basal_Viability ATP SW480 IC50/EC50 ([17]; basal): 1.466 µM; Basal_Viability ATP Colo 320 IC50/EC50 ([16]; basal): 9.2476 µM; Basal_Viability ATP DLD-1 IC50/EC50 ([18]; basal): 0.188 µM
6 | COC(=O)Nc1nc2ccc(C(=O)C3CC3)cc2[nH]1 [NCGC00262953-01] |  |  |  |  |  |  |  |  |  |  |  |  |  |  |  |  |  |  |  | > 20 | IC50/EC50, VEGF_ADSC\ECFC Angio Hoechst NucArea (assay number 3) [1]: > 10 µM; IC50/EC50, Basal_Viability ATP RKO (assay number 29) ([3]; basal): 0.1622 µM; IC50/EC50, hGSK3b LANCE (assay number 34) [4]: 14.94 µM; IC50/EC50, Basal_Viability ATP SNU-C1 (assay number 30) ([5]; basal): > 20 µM; IC50/EC50, WntCondMedia_Alk Phos C2C12 (assay number 6) ([6]; concentration response): 0.6836 µM; IC50/EC50, hJAK2 LANCE (assay number 33) [7]: > 20 µM; IC50/EC50, hKDR LANCE (assay number 32) [8]: 15.14 µM; IC50/EC50, Hela CellCycMod PI 2N (assay number 14) ([9]; 2N): 0.4173 µM; IC50/EC50, Hela CellCycMod PI 4N (assay number 16) ([9]; 4N): 0.4164 µM; IC50/EC50, Hela CellCycMod PI Cell Number (assay number 18) ([9]; Cell Number): 0.2969 µM; IC50/EC50, Hela CellCycMod PI MI (assay number 17) ([9]; MI): 0.4024 µM; IC50/EC50, Hela CellCycMod PI S Phase (assay number 15) ([9]; S Phase): > 10 µM; IC50/EC50, Basal_Viability ATP HCT116 (assay number 25) ([10]; basal): 0.1735 µM; IC50/EC50, WntCondMedia_bCatenin C2C12 (assay number 5) ([11]; concentration response): 0.3486 µM; IC50/EC50, hFLT3 LANCE (assay number 35) [12]: 6.14 µM; IC50/EC50, Basal_Viability ATP HT-29 (assay number 28) ([14]; basal): 1.6823 µM; IC50/EC50, VEGF_ADSC\ECFC Angio CD31 TubeArea (assay number 2) [15]: 1.1914 µM; IC50/EC50, Basal_Viability ATP SW480 (assay number 24) ([17]; basal): > 20 µM; IC50/EC50, Basal_Viability ATP Colo 320 (assay number 27) ([16]; basal): 0.1556 µM
